Values quoted from earlier work in PMC6611794, “Development of a high-throughput strategy for discovery of potent analogues of antibiotic lysocin E” (Nature Communications, 2019).

Tested on: S. aureus
Parameters: method as in PMID 25485686
Conditions: S. aureus-infected mice; cited from earlier work
Text: Lysocin E (1, Fig. 1a) was isolated from Lysobacter sp. as a new antibiotic and structurally determined to be a 37-membered depsipeptide (molecular weight = 1618 Da) with an N-methylated amide and ester linkages. The macrocyclic core of 12 residues contains four different non-proteinogenic D-amino acids (D-Arg-2/7, N-Me-D-Phe-5, D-Gln-9, D-Trp-10) and is appended with (R)-3-hydroxy-5-methylhexanamide. […] Screening of the additives ind ...

SMILES: CN[C@H](CC(C)C)C(=O)N[C@H]1C(=O)N[C@@H](CC(N)=O)C(=O)N[C@H]2C(=O)N[C@H]3C(=O)N[C@H](C(=O)N[C@H](C(=O)O)c4cc(O)cc(O)c4-c4cc3ccc4O)[C@H](O)c3ccc(c(Cl)c3)Oc3cc2cc(c3O[C@@H]2O[C@H](CO)[C@@H](O)[C@H](O)[C@H]2O[C@H]2C[C@](C)(N)[C@H](O)[C@H](C)O2)Oc2ccc(cc2Cl)[C@H]1O [vancomycin, reference compound]
- ED50: 5.8 mg/kg
